Experimental data published in US8492374B2, “Azaazulene compounds” (Industrial Technology Research Institute, priority 2009, dated 2013).

Assays:
[1] = tested on: MV4-11 (FLT3-ITD) cell line; experiment: In vitro cell activity assay (MTT cell viability, 72 hours); assay type: cell-based; conditions: Homo sapiens, 72 hours at 37° C., 10,000 cells per well, read-out: IC50 against MV4-11
Summary of the method: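 Compound serial dilutions applied to MV4-11 (FLT3-ITD) cells, 10,000 per well, for 72 hours at 37° C. Viability by MTT, formazan dissolved in DMSO, absorbance at 600 nm; IC50 by nonlinear regression as concentration halving absorbance versus untreated cells.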

c-KIT kinase = target: T1, c-KIT kinase (Homo sapiens, UniProt P10721); experiment: c-KIT kinase DELFIA assay (HTScan c-KIT Kinase Assay Kit); assay type: biochemical; conditions: 20 uM ATP; for inhibition at 0.1 µM: 0.1 uM compound; for inhibition at 1 µM: 1 uM compound
T1 construct: human c-KIT (Thr544-Val976); GST (N); purchased Cell Signaling Technology HTScan c-KIT Kinase Assay Kit; host or cells: baculovirus expression system
T1 sequence (P10721 544-976): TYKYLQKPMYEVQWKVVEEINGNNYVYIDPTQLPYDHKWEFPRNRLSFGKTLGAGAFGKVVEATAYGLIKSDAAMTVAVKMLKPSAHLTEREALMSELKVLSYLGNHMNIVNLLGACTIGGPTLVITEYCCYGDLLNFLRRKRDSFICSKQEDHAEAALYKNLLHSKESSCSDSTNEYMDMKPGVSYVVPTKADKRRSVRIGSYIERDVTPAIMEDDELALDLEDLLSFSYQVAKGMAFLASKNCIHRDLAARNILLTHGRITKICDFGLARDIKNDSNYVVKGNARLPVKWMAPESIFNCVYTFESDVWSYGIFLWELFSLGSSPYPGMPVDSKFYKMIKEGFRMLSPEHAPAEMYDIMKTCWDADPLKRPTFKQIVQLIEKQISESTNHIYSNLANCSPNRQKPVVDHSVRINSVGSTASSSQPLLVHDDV
Description: (§1) Azaazulene Compounds of this invention were treated for their efficacy in inhibiting activities of FLT-3, c-KIT and KDR kinases by biochemical DELFIA (Dissociation Enhanced Lanthanide FIA) assays according to the procedure described below. The assays were conducted by, Division of Cell Engineering, Biomedical Engineering Research Laboratories, Industrial Technology Research Institute, Bldg. 53, 195, sec. 4, Chung Hsing Rd. Chutung, Hsinchu, Taiwan 310, R.O.C.
The c-KIT assay was conducted following the protocol described in Protocol for HTScan® c-KIT Kinase Assay Kit (Cell Signaling Technology®).

FLT-3 kinase = target: T2, FLT-3 kinase (Homo sapiens, UniProt P36888); experiment: FLT-3 kinase DELFIA assay (HTScan FLT-3 Kinase Assay Kit); assay type: biochemical; conditions: 20 uM ATP; for inhibition at 0.1 µM: 0.1 uM compound; for inhibition at 1 µM: 1 uM compound
T2 construct: human FLT-3 (Arg571-Ser993); GST (N); purchased Cell Signaling Technology HTScan FLT-3 Kinase Assay Kit; host or cells: baculovirus expression system
T2 sequence (P36888 571-993): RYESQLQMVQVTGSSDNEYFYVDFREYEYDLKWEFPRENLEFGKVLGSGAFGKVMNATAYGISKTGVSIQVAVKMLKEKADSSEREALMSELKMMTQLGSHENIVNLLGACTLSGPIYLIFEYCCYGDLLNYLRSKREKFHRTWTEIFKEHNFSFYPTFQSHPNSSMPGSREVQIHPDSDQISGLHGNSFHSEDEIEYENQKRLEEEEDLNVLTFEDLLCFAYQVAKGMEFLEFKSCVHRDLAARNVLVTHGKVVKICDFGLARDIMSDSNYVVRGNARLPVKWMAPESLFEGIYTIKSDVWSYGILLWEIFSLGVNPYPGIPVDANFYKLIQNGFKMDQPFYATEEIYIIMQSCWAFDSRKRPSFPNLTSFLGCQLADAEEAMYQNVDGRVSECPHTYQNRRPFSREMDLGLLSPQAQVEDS

KDR kinase = target: T3, KDR kinase (Homo sapiens, UniProt P35968); experiment: KDR kinase DELFIA assay (HTScan VEGFR-2 Kinase Assay Kit); assay type: biochemical; conditions: 20 uM ATP; for inhibition at 0.1 µM: 0.1 uM compound, read-out: Kinases inhibitory activities against KDR kinase, 0.1 uM; for inhibition at 1 µM: 1 uM compound, read-out: Kinases inhibitory activities against KDR kinase, 1 uM
T3 construct: human VEGFR-2 (Val789-Val1356); GST (N); purchased Cell Signaling Technology HTScan VEGFR-2 Kinase Assay Kit; host or cells: baculovirus expression system
T3 sequence (P35968 789-1356): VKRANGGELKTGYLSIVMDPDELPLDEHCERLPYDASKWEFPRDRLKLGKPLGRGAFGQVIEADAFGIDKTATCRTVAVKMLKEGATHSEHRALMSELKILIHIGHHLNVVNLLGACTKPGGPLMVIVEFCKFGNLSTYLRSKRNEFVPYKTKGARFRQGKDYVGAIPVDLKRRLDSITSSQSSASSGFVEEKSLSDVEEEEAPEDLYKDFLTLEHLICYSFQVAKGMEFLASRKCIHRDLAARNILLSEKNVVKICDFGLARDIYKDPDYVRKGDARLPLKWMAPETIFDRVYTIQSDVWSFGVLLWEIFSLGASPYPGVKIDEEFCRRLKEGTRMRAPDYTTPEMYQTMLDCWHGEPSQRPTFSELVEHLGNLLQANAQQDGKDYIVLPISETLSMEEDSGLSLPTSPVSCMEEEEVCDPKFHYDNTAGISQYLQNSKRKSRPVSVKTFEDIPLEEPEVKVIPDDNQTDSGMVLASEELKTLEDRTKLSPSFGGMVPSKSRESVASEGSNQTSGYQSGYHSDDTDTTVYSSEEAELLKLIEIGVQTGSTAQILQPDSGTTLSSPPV
Description: as §1
The KDR assay was conducted following the protocol described in Protocol for HTScan™ VEGFR-2 Kinase Assay Kit (Cell Signaling Technology™).

O=c1[nH]c2cccccc-2c1-c1nc2cc([N+](=O)[O-])ccc2[nH]1 [Compound B5]
IC50 [1]: 1300 nM | inhibition at 0.1 µM (c-KIT kinase): 15.2% | inhibition at 1 µM (c-KIT kinase): 56.8% | inhibition at 0.1 µM (FLT-3 kinase): 12.8% | inhibition at 1 µM (FLT-3 kinase): 27.1% | inhibition at 0.1 µM (KDR kinase): 31.7% | inhibition at 1 µM (KDR kinase): 45.3%

Nc1ccc2[nH]c(-c3c4cccccc-4[nH]c3=O)nc2c1 [Compound B6]
IC50 [1]: 916 nM | inhibition at 0.1 µM (c-KIT kinase): 32.6% | inhibition at 1 µM (c-KIT kinase): 62.6% | inhibition at 0.1 µM (FLT-3 kinase): 12.8% | inhibition at 1 µM (FLT-3 kinase): 45.1% | inhibition at 0.1 µM (KDR kinase): 29.7% | inhibition at 1 µM (KDR kinase): 63.3%

CCN(CC)CCn1c2cccccc-2c(-c2nc3ccccc3[nH]2)c1=O [Compound B1]
IC50 [1]: 1000 to 5000 nM | inhibition at 0.1 µM (c-KIT kinase): 31.2% | inhibition at 1 µM (c-KIT kinase): 41.1% | inhibition at 0.1 µM (FLT-3 kinase): 8.4% | inhibition at 1 µM (FLT-3 kinase): 10.4% | inhibition at 1 µM (KDR kinase): 3.7%

O=c1[nH]c2cccccc-2c1-c1nc2cc(F)ccc2[nH]1 [Compound B2]
IC50 [1]: 1000 to 5000 nM | inhibition at 0.1 µM (c-KIT kinase): 6.4% | inhibition at 1 µM (c-KIT kinase): 57.9% | inhibition at 0.1 µM (FLT-3 kinase): 18.9% | inhibition at 1 µM (FLT-3 kinase): 59.9% | inhibition at 0.1 µM (KDR kinase): 78.3% | inhibition at 1 µM (KDR kinase): 94.5%

O=c1[nH]c2cccccc-2c1-c1cn2ccccc2n1 [Compound B9]
IC50 [1]: 1000 to 5000 nM | inhibition at 0.1 µM (c-KIT kinase): 16% | inhibition at 1 µM (c-KIT kinase): 24.4% | inhibition at 0.1 µM (FLT-3 kinase): 5.8% | inhibition at 1 µM (FLT-3 kinase): 19.1% | inhibition at 0.1 µM (KDR kinase): 0.5% | inhibition at 1 µM (KDR kinase): 13.2%
